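Exposure lasted 48 hours, with cells grown in 96-well plates and compounds tested at five concentrations. At the TGI there is no net growth.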
Assays:
Test in all cases: NCI anticancer screen, dose series, 48 h
[1] = system: SNB-75 CNS
[2] = system: HT29 colon
[3] = system: T-47D breast
[4] = system: PC-3 prostate
[5] = system: SW-620 colon
[6] = system: MALME-3M melanoma
[7] = system: M14 melanoma
[8] = system: CAKI-1 renal
[9] = system: HCC-2998 colon
[10] = system: 786-0 renal
[11] = system: RXF 393 renal
[12] = system: HL-60(TB) leukemia
[13] = system: TK-10 renal
[14] = system: SR leukemia
[15] = system: RPMI-8226 leukemia
[16] = system: SK-OV-3 ovarian
[17] = system: MDA-N
[18] = system: SK-MEL-28 melanoma
[19] = system: HCT-15 colon
[20] = system: EKVX NSCLC
[21] = system: NCI-H23 lung
[22] = system: SK-MEL-5 melanoma
[23] = system: SF-295 CNS
[24] = system: IGROV1 ovarian
[25] = system: UACC-62 melanoma
[26] = system: COLO 205 colon
[27] = system: DU-145 prostate
[28] = system: MCF7 breast
[29] = system: LOX IMVI melanoma
[30] = system: A549 NSCLC
[31] = system: CCRF-CEM leukemia
[32] = system: K-562 leukemia
[33] = system: HOP-62 NSCLC
[34] = system: MOLT-4 leukemia
[35] = system: UACC-257 melanoma
[36] = system: MDA-MB-231 breast
[37] = system: OVCAR-8 ovarian
[38] = system: SN12C renal
[39] = system: KM12 colon
[40] = system: SF-268 CNS
[41] = system: A498 renal
[42] = system: BT-549 breast
[43] = system: SNB-19 CNS
[44] = system: ACHN renal
[45] = system: HCT-116 colon
[46] = system: OVCAR-4 ovarian
[47] = system: SK-MEL-2 melanoma
[48] = system: OVCAR-3 ovarian
[49] = system: HS 578T breast
[50] = system: UO-31 renal
[51] = system: MDA-MB-435
[52] = system: HOP-92 NSCLC
[53] = system: NCI/ADR-RES ovarian
[54] = system: NCI-H226 lung
[55] = system: U251 CNS
[56] = system: OVCAR-5 ovarian
[57] = system: NCI-H460 lung
[58] = system: NCI-H522 lung
[59] = system: SF-539 CNS

Compound: C/C(=C\CCC1=CC(=O)OC1)CCC1C2C(=O)CC(C)[C@@]3(C)CC[C@]1(C)[C@@]23C (some centres undefined)
- TGI [1]: > 10 µM
- TGI [2]: > 10 µM
- TGI [3]: > 10 µM
- TGI [4]: > 10 µM
- TGI [5]: > 10 µM
- TGI [6]: > 10 µM
- TGI [7]: > 10 µM
- TGI [8]: > 10 µM
- TGI [9]: > 10 µM
- TGI [10]: > 10 µM
- TGI [11]: > 10 µM
- TGI [12]: > 10 µM
- TGI [13]: > 10 µM
- TGI [14]: > 10 µM
- TGI [15]: > 10 µM
- TGI [16]: > 10 µM
- TGI [17]: > 10 µM
- TGI [18]: > 10 µM
- TGI [19]: > 10 µM
- TGI [20]: > 10 µM
- TGI [21]: > 10 µM
- TGI [22]: > 10 µM
- TGI [23]: > 10 µM
- TGI [24]: > 10 µM
- TGI [25]: > 10 µM
- TGI [26]: > 10 µM
- TGI [27]: > 10 µM
- TGI [28]: > 10 µM
- TGI [29]: > 10 µM
- TGI [30]: > 10 µM
- TGI [31]: > 10 µM
- TGI [32]: > 10 µM
- TGI [33]: > 10 µM
- TGI [34]: > 10 µM
- TGI [35]: > 10 µM
- TGI [36]: > 10 µM
- TGI [37]: > 10 µM
- TGI [38]: > 10 µM
- TGI [39]: > 10 µM
- TGI [40]: > 10 µM

Compound: c1ccc(CCCN2C3CCC2CN(CCOC(c2ccccc2)c2ccccc2)C3)cc1
- TGI [1]: 20.8 µM
- TGI [2]: 14.8 µM
- TGI [3]: 13.9 µM
- TGI [41]: 21.8 µM
- TGI [42]: 24.9 µM
- TGI [4]: 19.4 µM
- TGI [5]: 44.8 µM
- TGI [6]: 25.2 µM
- TGI [43]: 28.3 µM
- TGI [44]: 26.2 µM
- TGI [7]: 17.3 µM
- TGI [8]: 25.7 µM
- TGI [9]: 18 µM
- TGI [10]: 21.6 µM
- TGI [45]: 19.8 µM
- TGI [46]: 28.4 µM
- TGI [12]: 23.1 µM
- TGI [13]: 25.6 µM
- TGI [47]: 22.9 µM
- TGI [15]: 7.83 µM
- TGI [16]: 29.3 µM
- TGI [17]: 25.9 µM
- TGI [18]: 28.2 µM
- TGI [19]: 18.1 µM
- TGI [20]: 19.9 µM
- TGI [21]: 23.6 µM
- TGI [22]: 11.8 µM
- TGI [23]: 26.9 µM
- TGI [48]: 30.4 µM
- TGI [49]: 33.7 µM
- TGI [50]: 24.8 µM
- TGI [24]: 27 µM
- TGI [51]: 29 µM
- TGI [25]: 25.5 µM
- TGI [52]: 25.5 µM
- TGI [53]: 21.3 µM
- TGI [26]: 4.36 µM
- TGI [54]: 25.9 µM
- TGI [55]: 20.6 µM
- TGI [56]: 25.8 µM
- TGI [27]: 32 µM
- TGI [57]: 25.8 µM
- TGI [28]: 25.8 µM
- TGI [29]: 24.5 µM
- TGI [58]: 23 µM
- TGI [30]: 27.2 µM
- TGI [31]: 39.2 µM
- TGI [32]: 64 µM
- TGI [33]: 31.4 µM
- TGI [34]: 25.3 µM
- TGI [35]: 20.8 µM
- TGI [59]: 22.4 µM
- TGI [36]: 21 µM
- TGI [37]: 23.5 µM
- TGI [38]: 24.8 µM
- TGI [39]: 24.2 µM
- TGI [40]: 29.2 µM

Compound: O=C1c2cccnc2S(=O)(=O)N1c1ccc(Br)cc1
- TGI [1]: > 100 µM
- TGI [2]: > 100 µM
- TGI [3]: > 100 µM
- TGI [41]: > 100 µM
- TGI [42]: > 100 µM
- TGI [4]: > 100 µM
- TGI [5]: > 100 µM
- TGI [6]: > 100 µM
- TGI [43]: > 100 µM
- TGI [7]: > 100 µM
- TGI [8]: > 100 µM
- TGI [10]: > 100 µM
- TGI [45]: > 100 µM
- TGI [11]: > 100 µM
- TGI [46]: > 100 µM
- TGI [12]: 28.1 µM
- TGI [13]: > 100 µM
- TGI [14]: > 100 µM
- TGI [47]: > 100 µM
- TGI [15]: > 100 µM
- TGI [16]: > 100 µM
- TGI [17]: > 100 µM
- TGI [18]: > 100 µM
- TGI [19]: > 100 µM
- TGI [20]: > 100 µM
- TGI [21]: > 100 µM
- TGI [22]: > 100 µM
- TGI [23]: > 100 µM
- TGI [48]: > 100 µM
- TGI [49]: > 100 µM
- TGI [50]: > 100 µM
- TGI [24]: > 100 µM
- TGI [51]: > 100 µM
- TGI [25]: > 100 µM
- TGI [52]: > 100 µM
- TGI [53]: > 100 µM
- TGI [26]: > 100 µM
- TGI [54]: > 100 µM
- TGI [55]: > 100 µM
- TGI [56]: > 100 µM
- TGI [27]: > 100 µM
- TGI [29]: > 100 µM
- TGI [58]: > 100 µM
- TGI [30]: > 100 µM
- TGI [31]: > 100 µM
- TGI [32]: > 100 µM
- TGI [33]: > 100 µM
- TGI [34]: > 100 µM
- TGI [35]: > 100 µM
- TGI [36]: > 100 µM
- TGI [37]: > 100 µM
- TGI [38]: > 100 µM
- TGI [39]: > 100 µM
- TGI [40]: > 100 µM

Compound: CCOP(=O)(OCC)/C(C#N)=C/c1nc[nH]c1C
- TGI [1]: > 100 µM
- TGI [2]: > 100 µM
- TGI [41]: > 100 µM
- TGI [42]: > 100 µM
- TGI [4]: > 100 µM
- TGI [5]: > 100 µM
- TGI [6]: > 100 µM
- TGI [43]: > 100 µM
- TGI [44]: > 100 µM
- TGI [7]: > 100 µM
- TGI [8]: > 100 µM
- TGI [9]: > 100 µM
- TGI [10]: > 100 µM
- TGI [45]: > 100 µM
- TGI [11]: > 100 µM
- TGI [46]: > 100 µM
- TGI [12]: > 100 µM
- TGI [13]: > 100 µM
- TGI [14]: > 100 µM
- TGI [47]: > 100 µM
- TGI [15]: > 100 µM
- TGI [16]: > 100 µM
- TGI [17]: > 100 µM
- TGI [18]: > 100 µM
- TGI [19]: > 100 µM
- TGI [20]: > 100 µM
- TGI [21]: > 100 µM
- TGI [22]: > 100 µM
- TGI [23]: > 100 µM
- TGI [48]: > 100 µM
- TGI [49]: > 100 µM
- TGI [50]: > 100 µM
- TGI [24]: > 100 µM
- TGI [51]: > 100 µM
- TGI [25]: > 100 µM
- TGI [52]: > 100 µM
- TGI [53]: > 100 µM
- TGI [26]: > 100 µM
- TGI [54]: > 100 µM
- TGI [55]: > 100 µM
- TGI [56]: > 100 µM
- TGI [27]: > 100 µM
- TGI [57]: > 100 µM
- TGI [28]: > 100 µM
- TGI [29]: > 100 µM
- TGI [58]: > 100 µM
- TGI [30]: > 100 µM
- TGI [31]: > 100 µM
- TGI [32]: > 100 µM
- TGI [33]: > 100 µM
- TGI [34]: > 100 µM
- TGI [35]: > 100 µM
- TGI [59]: > 100 µM
- TGI [36]: > 100 µM
- TGI [37]: > 100 µM
- TGI [38]: > 100 µM
- TGI [39]: > 100 µM
- TGI [40]: > 100 µM
